{"source": "patent US20230048576A1", "about": "“COMPOUNDS FOR THE TREATMENT OF NEUROPATHIC PAIN” (City of Hope, priority 2019, published 2023)", "key": {"[1]": {"assay": "Formulation stability in 20% HPβCD in pH 8.0 buffer (HPLC area %)", "assay_type": "physicochemical"}, "[2]": {"assay": "Mean group body weight in Taxol model", "assay_type": "in vivo, rat", "description": "Neuropathic pain was induced by intraperitoneal administration of Taxol at a dose level of 6 mg/kg on study days 0-6 and 12 mg/kg on study days 7-12. Following injection of Taxol animals experienced pain as was assessed using the von Frey test. The development of neuropathic pain was confirmed by measuring mechanical allodynia (Von Frey test) on study day 13 (for inclusion) and on study day 14 (1 hour and 2 hour post dosing) and 24 hour post first dosing."}, "[3]": {"conditions": "5 mg/ml LR-90 in 20% HPβCD in pH 8.0 buffer"}, "[4]": {"conditions": "10 mg/ml LR-90 in 20% HPβCD in pH 8.0 buffer"}, "[5]": {"conditions": "100 mg/kg PO, Group 4, Baseline"}}}
{"smiles": "CC(C)(Oc1ccc(NC(=O)Nc2ccc(Cc3ccc(NC(=O)Nc4ccc(OC(C)(C)C(=O)O)cc4)c(Cl)c3)cc2Cl)cc1)C(=O)O", "note": "[LR-90, methylene bis[4,4′-(2-chlorophenylureidophenoxyisobutyric acid)]]", "values": [{"measurement": "Final Purity (24 hr) (HPLC area)", "setting": "[1]; [3]", "result": 99.20, "unit": "%"}, {"measurement": "Initial Purity (HPLC area)", "setting": "[1]; [3]", "result": 99.21, "unit": "%"}, {"measurement": "Final Purity (24 hr) (HPLC area)", "setting": "[1]; [4]", "result": 99.14, "unit": "%"}, {"measurement": "Initial Purity (HPLC area)", "setting": "[1]; [4]", "result": 99.20, "unit": "%"}, {"measurement": "degradation of the compound", "setting": "[1]; 20% HPβCD solution, at least for 24 hours", "result": "no degradation"}, {"measurement": "Mean group body weight", "setting": "[2]; 25 mg/kg PO, Group 6, Baseline", "result": 223.50, "unit": "g"}, {"measurement": "Mean group body weight (% from baseline)", "setting": "[2]; 25 mg/kg PO, Group 6, Baseline", "result": 100.00, "unit": "%"}, {"measurement": "Mean group body weight", "setting": "[2]; 25 mg/kg PO, Group 6, Day 1", "result": 235.00, "unit": "g"}, {"measurement": "Mean group body weight (% from baseline)", "setting": "[2]; 25 mg/kg PO, Group 6, Day 1", "result": 105.16, "unit": "%"}, {"measurement": "Mean group body weight", "setting": "[2]; 25 mg/kg PO, Group 6, Day 3", "result": 237.50, "unit": "g"}, {"measurement": "Mean group body weight (% from baseline)", "setting": "[2]; 25 mg/kg PO, Group 6, Day 3", "result": 106.26, "unit": "%"}, {"measurement": "Mean group body weight", "setting": "[2]; 25 mg/kg PO, Group 6, Day 5", "result": 255.50, "unit": "g"}, {"measurement": "Mean group body weight (% from baseline)", "setting": "[2]; 25 mg/kg PO, Group 6, Day 5", "result": 114.32, "unit": "%"}, {"measurement": "Mean group body weight", "setting": "[2]; 25 mg/kg PO, Group 6, Day 7", "result": 264.30, "unit": "g"}, {"measurement": "Mean group body weight (% from baseline)", "setting": "[2]; 25 mg/kg PO, Group 6, Day 7", "result": 118.31, "unit": "%"}, {"measurement": "Mean group body weight", "setting": "[2]; 25 mg/kg PO, Group 6, Day 9", "result": 275.88, "unit": "g"}, {"measurement": "Mean group body weight (% from baseline)", "setting": "[2]; 25 mg/kg PO, Group 6, Day 9", "result": 123.38, "unit": "%"}, {"measurement": "Mean group body weight", "setting": "[2]; 25 mg/kg PO, Group 6, Day 11", "result": 282.38, "unit": "g"}, {"measurement": "Mean group body weight (% from baseline)", "setting": "[2]; 25 mg/kg PO, Group 6, Day 11", "result": 126.30, "unit": "%"}, {"measurement": "Mean group body weight", "setting": "[2]; 25 mg/kg PO, Group 6, Day 13", "result": 286.75, "unit": "g"}, {"measurement": "Mean group body weight (% from baseline)", "setting": "[2]; 25 mg/kg PO, Group 6, Day 13", "result": 128.26, "unit": "%"}, {"measurement": "Mean group body weight", "setting": "[2]; 25 mg/kg PO, Group 6, Day 16", "result": 277.50, "unit": "g"}, {"measurement": "Mean group body weight (% from baseline)", "setting": "[2]; 25 mg/kg PO, Group 6, Day 16", "result": 124.11, "unit": "%"}, {"measurement": "Mean group body weight", "setting": "[2]; 25 mg/kg PO, Group 6, Day 20", "result": 277.63, "unit": "g"}, {"measurement": "Mean group body weight (% from baseline)", "setting": "[2]; 25 mg/kg PO, Group 6, Day 20", "result": 124.18, "unit": "%"}, {"measurement": "Mean group body weight", "setting": "[2]; 25 mg/kg PO, Group 6, Day 23", "result": 263.63, "unit": "g"}, {"measurement": "Mean group body weight (% from baseline)", "setting": "[2]; 25 mg/kg PO, Group 6, Day 23", "result": 117.84, "unit": "%"}, {"measurement": "Mean group body weight", "setting": "[2]; 25 mg/kg PO, Group 6, Day 26", "result": 239.00, "unit": "g"}, {"measurement": "Mean group body weight (% from baseline)", "setting": "[2]; 25 mg/kg PO, Group 6, Day 26", "result": 108.59, "unit": "%"}, {"measurement": "Mean group body weight", "setting": "[2]; 50 mg/kg PO, Group 5, Baseline", "result": 225.88, "unit": "g"}, {"measurement": "Mean group body weight (% from baseline)", "setting": "[2]; 50 mg/kg PO, Group 5, Baseline", "result": 100.00, "unit": "%"}, {"measurement": "Mean group body weight", "setting": "[2]; 50 mg/kg PO, Group 5, Day 1", "result": 234.38, "unit": "g"}, {"measurement": "Mean group body weight (% from baseline)", "setting": "[2]; 50 mg/kg PO, Group 5, Day 1", "result": 103.80, "unit": "%"}, {"measurement": "Mean group body weight", "setting": "[2]; 50 mg/kg PO, Group 5, Day 3", "result": 241.63, "unit": "g"}, {"measurement": "Mean group body weight (% from baseline)", "setting": "[2]; 50 mg/kg PO, Group 5, Day 3", "result": 106.95, "unit": "%"}, {"measurement": "Mean group body weight", "setting": "[2]; 50 mg/kg PO, Group 5, Day 5", "result": 257.50, "unit": "g"}, {"measurement": "Mean group body weight (% from baseline)", "setting": "[2]; 50 mg/kg PO, Group 5, Day 5", "result": 113.97, "unit": "%"}, {"measurement": "Mean group body weight", "setting": "[2]; 50 mg/kg PO, Group 5, Day 7", "result": 268.63, "unit": "g"}, {"measurement": "Mean group body weight (% from baseline)", "setting": "[2]; 50 mg/kg PO, Group 5, Day 7", "result": 118.88, "unit": "%"}, {"measurement": "Mean group body weight", "setting": "[2]; 50 mg/kg PO, Group 5, Day 9", "result": 278.38, "unit": "g"}, {"measurement": "Mean group body weight (% from baseline)", "setting": "[2]; 50 mg/kg PO, Group 5, Day 9", "result": 123.18, "unit": "%"}, {"measurement": "Mean group body weight", "setting": "[2]; 50 mg/kg PO, Group 5, Day 11", "result": 286.13, "unit": "g"}, {"measurement": "Mean group body weight (% from baseline)", "setting": "[2]; 50 mg/kg PO, Group 5, Day 11", "result": 126.60, "unit": "%"}, {"measurement": "Mean group body weight", "setting": "[2]; 50 mg/kg PO, Group 5, Day 13", "result": 291.38, "unit": "g"}, {"measurement": "Mean group body weight (% from baseline)", "setting": "[2]; 50 mg/kg PO, Group 5, Day 13", "result": 128.91, "unit": "%"}, {"measurement": "Mean group body weight", "setting": "[2]; 50 mg/kg PO, Group 5, Day 16", "result": 280.13, "unit": "g"}, {"measurement": "Mean group body weight (% from baseline)", "setting": "[2]; 50 mg/kg PO, Group 5, Day 16", "result": 123.98, "unit": "%"}, {"measurement": "Mean group body weight", "setting": "[2]; 50 mg/kg PO, Group 5, Day 20", "result": 273.75, "unit": "g"}, {"measurement": "Mean group body weight (% from baseline)", "setting": "[2]; 50 mg/kg PO, Group 5, Day 20", "result": 121.18, "unit": "%"}, {"measurement": "Mean group body weight", "setting": "[2]; 50 mg/kg PO, Group 5, Day 23", "result": 264.29, "unit": "g"}, {"measurement": "Mean group body weight (% from baseline)", "setting": "[2]; 50 mg/kg PO, Group 5, Day 23", "result": 116.09, "unit": "%"}, {"measurement": "Mean group body weight", "setting": "[2]; 50 mg/kg PO, Group 5, Day 26", "result": 266.67, "unit": "g"}, {"measurement": "Mean group body weight (% from baseline)", "setting": "[2]; 50 mg/kg PO, Group 5, Day 26", "result": 117.29, "unit": "%"}, {"measurement": "Mean group body weight", "setting": "[2]; [5]", "result": 222.63, "unit": "g"}, {"measurement": "Mean group body weight (% from baseline)", "setting": "[2]; [5]", "result": 100.00, "unit": "%"}, {"measurement": "Mean group body weight", "setting": "[2]; 100 mg/kg PO, Group 4, Day 1", "result": 235.50, "unit": "g"}, {"measurement": "Mean group body weight (% from baseline)", "setting": "[2]; 100 mg/kg PO, Group 4, Day 1", "result": 105.77, "unit": "%"}, {"measurement": "Mean group body weight", "setting": "[2]; 100 mg/kg PO, Group 4, Day 3", "result": 237.63, "unit": "g"}, {"measurement": "Mean group body weight (% from baseline)", "setting": "[2]; 100 mg/kg PO, Group 4, Day 3", "result": 106.74, "unit": "%"}, {"measurement": "Mean group body weight", "setting": "[2]; 100 mg/kg PO, Group 4, Day 5", "result": 257.25, "unit": "g"}, {"measurement": "Mean group body weight (% from baseline)", "setting": "[2]; 100 mg/kg PO, Group 4, Day 5", "result": 115.56, "unit": "%"}, {"measurement": "Mean group body weight", "setting": "[2]; 100 mg/kg PO, Group 4, Day 7", "result": 267.25, "unit": "g"}, {"measurement": "Mean group body weight (% from baseline)", "setting": "[2]; 100 mg/kg PO, Group 4, Day 7", "result": 120.04, "unit": "%"}, {"measurement": "Mean group body weight", "setting": "[2]; 100 mg/kg PO, Group 4, Day 9", "result": 276.50, "unit": "g"}, {"measurement": "Mean group body weight (% from baseline)", "setting": "[2]; 100 mg/kg PO, Group 4, Day 9", "result": 124.20, "unit": "%"}, {"measurement": "Mean group body weight", "setting": "[2]; 100 mg/kg PO, Group 4, Day 11", "result": 285.00, "unit": "g"}, {"measurement": "Mean group body weight (% from baseline)", "setting": "[2]; 100 mg/kg PO, Group 4, Day 11", "result": 128.01, "unit": "%"}, {"measurement": "Mean group body weight", "setting": "[2]; 100 mg/kg PO, Group 4, Day 13", "result": 288.75, "unit": "g"}, {"measurement": "Mean group body weight (% from baseline)", "setting": "[2]; 100 mg/kg PO, Group 4, Day 13", "result": 129.71, "unit": "%"}, {"measurement": "Mean group body weight", "setting": "[2]; 100 mg/kg PO, Group 4, Day 16", "result": 284.75, "unit": "g"}, {"measurement": "Mean group body weight (% from baseline)", "setting": "[2]; 100 mg/kg PO, Group 4, Day 16", "result": 127.91, "unit": "%"}, {"measurement": "Mean group body weight", "setting": "[2]; 100 mg/kg PO, Group 4, Day 20", "result": 266.63, "unit": "g"}, {"measurement": "Mean group body weight (% from baseline)", "setting": "[2]; 100 mg/kg PO, Group 4, Day 20", "result": 119.75, "unit": "%"}, {"measurement": "Mean group body weight", "setting": "[2]; 100 mg/kg PO, Group 4, Day 23", "result": 249.00, "unit": "g"}, {"measurement": "Mean group body weight (% from baseline)", "setting": "[2]; 100 mg/kg PO, Group 4, Day 23", "result": 111.34, "unit": "%"}, {"measurement": "Mean group body weight", "setting": "[2]; 100 mg/kg PO, Group 4, Day 26", "result": 234.00, "unit": "g"}, {"measurement": "Mean group body weight (% from baseline)", "setting": "[2]; 100 mg/kg PO, Group 4, Day 26", "result": 106.04, "unit": "%"}]}
